24 compounds from US20210323977A1, “PYRROLIDINYL AMIDE COMPOUNDS FOR THE TREATMENT OF AUTOIMMUNE DISEASE” (Hoffmann-La Roche Inc., priority 2018, published 2021) can be followed below.

This assay concerns the target T1, human TLR9 (Homo sapiens, UniProt Q9NR96).
T1 sequence (Q9NR96 26-1032): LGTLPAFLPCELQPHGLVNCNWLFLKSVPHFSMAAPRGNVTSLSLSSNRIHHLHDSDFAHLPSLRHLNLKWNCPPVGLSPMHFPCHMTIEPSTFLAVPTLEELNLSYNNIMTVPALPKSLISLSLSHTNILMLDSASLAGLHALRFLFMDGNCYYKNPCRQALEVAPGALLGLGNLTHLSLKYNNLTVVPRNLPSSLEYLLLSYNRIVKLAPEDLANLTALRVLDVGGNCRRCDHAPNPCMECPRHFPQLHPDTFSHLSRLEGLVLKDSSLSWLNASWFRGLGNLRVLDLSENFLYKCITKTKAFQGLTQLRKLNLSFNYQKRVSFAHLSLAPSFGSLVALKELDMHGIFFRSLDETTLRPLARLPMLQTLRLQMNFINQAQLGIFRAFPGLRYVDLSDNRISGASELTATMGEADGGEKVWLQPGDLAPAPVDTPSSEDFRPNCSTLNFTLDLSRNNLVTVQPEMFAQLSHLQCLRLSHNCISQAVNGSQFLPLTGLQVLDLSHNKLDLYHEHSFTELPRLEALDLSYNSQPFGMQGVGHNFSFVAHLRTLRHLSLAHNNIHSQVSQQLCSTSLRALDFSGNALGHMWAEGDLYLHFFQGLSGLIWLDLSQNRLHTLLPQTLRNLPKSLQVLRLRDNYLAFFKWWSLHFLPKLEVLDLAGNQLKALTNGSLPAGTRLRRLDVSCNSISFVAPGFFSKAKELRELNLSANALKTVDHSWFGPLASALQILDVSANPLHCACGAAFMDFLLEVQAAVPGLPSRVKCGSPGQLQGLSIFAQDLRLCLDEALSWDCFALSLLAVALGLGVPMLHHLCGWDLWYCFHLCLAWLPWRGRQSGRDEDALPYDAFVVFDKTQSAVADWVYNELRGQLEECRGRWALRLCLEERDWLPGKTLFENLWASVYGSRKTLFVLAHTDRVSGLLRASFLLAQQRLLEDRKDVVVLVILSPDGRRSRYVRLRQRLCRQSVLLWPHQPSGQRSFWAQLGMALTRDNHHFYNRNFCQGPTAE
The assay is described as follows: HEK293-Blue-hTLR-9 cells assay. Type of assay: cell-based. The conditions noted are these: HEK293-Blue-hTLR9 cells, SEAP reporter, ODN2006 stimulation, 20 hrs. The source says:
HEK293-Blue-hTLR-9 Cells Assay:
A stable HEK293-Blue-hTLR-9 cell line was purchased from InvivoGen (Cat. #: hkb-htlh9, San Diego, Calif., USA). These cells were originally designed for studying the stimulation of human TLR9 by monitoring the activation of NF-κB. A SEAP (secreted embryonic alkaline phosphatase) reporter gene was placed under the control of the IFN-β minimal promoter fused to five NF-κB and AP-1-binding sites. The SEAP was induced by activating NF-κB and AP-1 via stimulating HEK-Blue hTLR9 cells with TLR9 ligands. Therefore the reporter expression was declined by TLR9 antagonist under the stimulation of a ligand, such as ODN2006 (Cat. #: tlrl-2006-1, Invivogen, San Diego, Calif., USA), for incubation of 20 hrs. The cell culture supernatant SEAP reporter activity was determined using QUANTI-Blue™ kit (Cat. #: rep-qb1, Invivogen, San Diego, Calif., USA) at a wavelength of 640 nm, a detection medium that turns purple or blue in the presence of alkaline phosphatase.
HEK293-Blue-hTLR9 cells were incubated at a density of 250,000-450,000 cells/mL in a volume of 170 μL in a 96-well plate in Dulbecco's Modified Eagle's medium (DMEM) containing 4.5 g/L glucose, 50 U/mL penicillin, […], […], 2 mM L-glutamine, 10% (v/v) heat-inactivated fetal bovine serum with addition of 20 sL test compound in a serial dilution in the presence of final DMSO at 1% and 10 sL of 20 uM ODN2006 in above DMEM, perform incubation under 37° C. in a CO2 incubator for 20 hrs. Then 20 sL of the supernatant from each well was incubated with 180 μL Quanti-blue substrate solution at 37° C. for 2 hrs and the absorbance was read at 620-655 nm using a spectrophotometer. The signalling pathway that TLR9 activation leads to downstream NF-x3B activation has been widely accepted, and therefore similar reporter assay was modified for evaluating TLR9 antagonist.
For orientation: IC50 means the point on the concentration scale where inhibition reaches its midpoint. A low value points to greater potency. For the compound `N#Cc1ccc(N2CC(C(=O)NC3CCCNCC3)C(C(F)(F)F)C2)c2cccnc12` (single isomer, unassigned) [Example 30A, N-(azepan-4-yl)-1-(8-cyano-5-quinolyl)-4-(trifluoromethyl)pyrrolidine-3-carboxamide], the IC50 worked out at 17.5 µM.
As for `CC[C@@H]1CN(c2ccc(C#N)c3ncccc23)C[C@H]1C(=O)NC1CCN(C)CC1` (relative stereo) [Example 29, Trans-1-(8-cyano-5-quinolyl)-4-ethyl-N-(1-methyl-4-piperidyl)pyrrolidine-3-carboxamide], the figure is 6.9 µM; as for `O=C(NC1CC2COCC(C1)N2)C1CN(c2ccc(C(F)(F)F)c3nccnc23)CC12CC2` (stereo not drawn) [Example 6, N-(3-oxa-9-azabicyclo[3.3.1]nonan-7-yl)-5-[8-(trifluoromethyl)quinoxalin-5-yl]-5-azaspiro[2.4]heptane-7-carboxamide], 1.4 µM; as for `O=C(NC1C2CCCC1CNC2)C1CN(c2ccc(C(F)(F)F)c3nccnc23)CC12CC2` (stereo not drawn) [Example 8, N-(3-azabicyclo[3.3.1]nonan-9-yl)-5-[8-(trifluoromethyl)quinoxalin-5-yl]-5-azaspiro[2.4]heptane-7-carboxamide], 8.3 µM.
As for `CC(C)[C@@H]1CN(c2ccc(C#N)c3ncccc23)C[C@H]1C(=O)NC1CCN(C)CC1` (relative stereo) [Example 37, Trans-1-(8-cyano-5-quinolyl)-4-isopropyl-N-(1-methyl-4-piperidyl)pyrrolidine-3-carboxamide], the figure is 5.2 µM; as for `CN1CCC(NC(=O)C2CN(c3ccc(C#N)c4ncccc34)CC2C(F)(F)F)CC1` (stereo not drawn) [Example 18, 1-(8-Cyano-5-quinolyl)-N-(1-methyl-4-piperidyl)-4-(trifluoromethyl)pyrrolidine-3-carboxamide], 10.8 µM; as for `NC1CC2(C1)CC(NC(=O)C1CN(c3ccc(C(F)(F)F)c4nccnc34)CC13CC3)C2` (stereo not drawn) [Example 22, N-(6-aminospiro[3.3]heptan-2-yl)-5-[8-(trifluoromethyl)quinoxalin-5-yl]-5-azaspiro[2.4]heptane-7-carboxamide], 8.2 µM.
`C[C@H]1CN(c2ccc(C(F)(F)F)c3nccnc23)C[C@@H]1C(=O)NC1CCN(C)CC1` [Example 5, (3R,4R)-4-methyl-N-(1-methyl-4-piperidyl)-1-[8-(trifluoromethyl)quinoxalin-5-yl]pyrrolidine-3-carboxamide] showed an IC50 of 10.4 µM.
As for `CN1CCCC(CNC(=O)C2CN(c3ccc(C#N)c4ncccc34)CC23CC3)C1` (stereo not drawn) [Example 51, 5-(8-Cyano-5-quinolyl)-N-[(1-methyl-3-piperidyl)methyl]-5-azaspiro[2.4]heptane-7-carboxamide], the figure is 2 µM; as for `CN1CC(NC(=O)C2CN(c3ccc(C(F)(F)F)c4nccnc34)CC23CC3)C2(CC2)C1` (stereo not drawn) [Example 20, N-(5-methyl-5-azaspiro[2.4]heptan-7-yl)-5-[8-(trifluoromethyl)quinoxalin-5-yl]-5-azaspiro[2.4]heptane-7-carboxamide], 13.1 µM; as for `NC1CC(NC(=O)C2CN(c3ccc(C(F)(F)F)c4nccnc34)CC23CC3)C1` (stereo not drawn) [Example 38, N-(3-Aminocyclobutyl)-5-[8-(trifluoromethyl)quinoxalin-5-yl]-5-azaspiro[2.4]heptane-7-carboxamide], 12.3 µM.
As for `CN1CCC(NC(=O)[C@H]2CN(c3ccc(C#N)c4ncccc34)C[C@@H]2C(F)(F)F)CC1` [Example 4, (3R,4R)-1-(8-cyano-5-quinolyl)-N-(1-methyl-4-piperidyl)-4-(trifluoromethyl)pyrrolidine-3-carboxamide], the figure is 9.9 µM; as for `O=C(NC1CC2(CCNCC2)C1)C1CN(c2ccc(C(F)(F)F)c3nccnc23)CC12CC2` (stereo not drawn) [Example 34, N-(7-azaspiro[3.5]nonan-2-yl)-5-[8-(trifluoromethyl)quinoxalin-5-yl]-5-azaspiro[2.4]heptane-7-carboxamide], 16.7 µM.
Turning to `C[C@H]1CN(c2ccc([N+](=O)[O-])c3ncccc23)C[C@@H]1C(=O)NC1CCN(C)CC1` [Example 27, (3R,4R)-4-Methyl-N-(1-methyl-4-piperidyl)-1-(8-nitro-5-quinolyl)pyrrolidine-3-carboxamide], the IC50 stood at 4.5 µM.
As for `N[C@@H]1CCC[C@H](NC(=O)C2CN(c3ccc(C(F)(F)F)c4nccnc34)CC23CC3)C1` (relative stereo) [Example 43, Cis-N-(3-aminocyclohexyl)-5-[8-(trifluoromethyl)quinoxalin-5-yl]-5-azaspiro[2.4]heptane-7-carboxamide], the figure is 17.9 µM; as for `C[C@@H]1CN(c2ccc(C#N)c3ncccc23)C[C@H]1C(=O)NC1CCCNCC1` (single isomer, unassigned) [Example 52A, Trans-N-(azepan-4-yl)-1-(8-cyano-5-quinolyl)-4-methyl-pyrrolidine-3-carboxamide], 12.3 µM.
As for `CN1CCC(NC(=O)[C@@H]2CN(c3ccc(C#N)c4ncccc34)C[C@H]2C2CC2)CC1` (relative stereo) [Example 14, Trans-1-(8-cyano-5-quinolyl)-4-cyclopropyl-N-(1-methyl-4-piperidyl)pyrrolidine-3-carboxamide], the figure is 4.5 µM; as for `C[C@@H]1CN(c2ccc(C#N)c3ncccc23)C[C@H]1C(=O)N1CCC2(CCNCC2)CC1` (relative stereo) [Example 32, Trans-5-[3-(3,9-diazaspiro[5.5]undecane-3-carbonyl)-4-methyl-pyrrolidin-1-yl]quinoline-8-carbonitrile], 2.4 µM; as for `N[C@@H]1C[C@H](NC(=O)C2CN(c3ccc(C(F)(F)F)c4nccnc34)CC23CC3)[C@@H]2C[C@@H]21` (stereo partly drawn) [Example 36, N-[(1R,2S,4R,5S)-4-amino-2-bicyclo[3.1.0]hexanyl]-5-[8-(trifluoromethyl)quinoxalin-5-yl]-5-azaspiro[2.4]heptane-7-carboxamide], 21.8 µM.
As for `C[C@H]1CN(c2ccc(Cl)c3ncccc23)C[C@@H]1C(=O)NC1CCN(C)CC1` [Example 50, (3R,4R)-1-(8-chloro-5-quinolyl)-4-methyl-N-(1-methyl-4-piperidyl)pyrrolidine-3-carboxamide], the figure is 3.4 µM; as for `CN1CCC(NC(=O)[C@@H]2CN(c3ccc(Cl)c4ncccc34)C[C@H]2C(F)(F)F)CC1` (relative stereo) [Example 46, Trans-1-(8-chloro-5-quinolyl)-N-(1-methyl-4-piperidyl)-4-(trifluoromethyl)pyrrolidine-3-carboxamide], 15.6 µM; as for `C[C@H]1CN(c2ccc(C#N)c3nccnc23)C[C@@H]1C(=O)NC1CCN(C)CC1` [Example 3, (3R,4R)-1-(8-cyanoquinoxalin-5-yl)-4-methyl-N-(1-methyl-4-piperidyl)pyrrolidine-3-carboxamide], 5.7 µM.
For `C[C@H]1CN(c2ccc(C#N)c3nccnc23)C[C@@H]1C(=O)NC1CCN(C2CCNCC2)CC1` [Example 60, (3R,4R)-1-(8-cyanoquinoxalin-5-yl)-4-methyl-N-[1-(4-piperidyl)-4-piperidyl]pyrrolidine-3-carboxamide], inhibition was half-maximal at 3.2 µM (IC50).
As for `N#Cc1ccc(N2CC(C(=O)NC[C@@H]3CNCCO3)C3(CC3)C2)c2nccnc12` (single isomer, unassigned) [Example 71B], the figure is 1.9 µM.
